{"source": "patent US10770169B2", "about": "“Method of providing a treatment to a subject based on a dynamic pathway map” (THE REGENTS OF THE UNIVERSITY OF CALIFORNIA, priority 2010, dated 2020)", "key": {"[1]": {"test_system": "panel of 55 breast cancer cell lines", "test": "Cell growth inhibition assay (Cell Titer Glo, 72 h, 9 doses; GI50, TGI, LC50)", "assay_type": "cell-based, human", "conditions": "value is the negative log10 of mol/L"}, "[2]": {"test_system": "luminal, basal, claudin-low and ERBB2AMP breast cancer cell lines", "test": "Associations of clinically relevant subtypes and response (non-parametric ANOVA or t-test on GI50 ranks)", "assay_type": "cell-based, human", "how_it_was_run": "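Significance was set at FDR p<0.20 after combining p-values across three test sets. Subtype–response associations came from rank-based non-parametric ANOVA or t-tests on GI50. For three-class comparisons, post-hoc tests of each group against the rest identified the most sensitive group, with FDR correction.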"}}, "note": "“Also recorded” adds a separate entry of the source."}
{"smiles": "O=c1[nH]c2ccccc2n1C1CCN(Cc2ccc(-c3nc4cc5[nH]cnc5cc4nc3-c3ccccc3)cc2)CC1", "note": "[Sigma AKT1-2 inhibitor]", "values": [{"measurement": "GI50", "setting": "[1]; AU565 cell line, censored GI50 values", "value": 5.61}, {"measurement": "GI50", "setting": "[1]; BT20 cell line, censored GI50 values", "value": 5.00}, {"measurement": "GI50", "setting": "[1]; BT474 cell line, censored GI50 values", "value": 6.08}, {"measurement": "GI50", "setting": "[1]; BT483 cell line, censored GI50 values", "value": 6.08}, {"measurement": "GI50", "setting": "[1]; CAMA1 cell line, censored GI50 values", "value": 5.59}, {"measurement": "GI50", "setting": "[1]; HCC38 cell line, censored GI50 values", "value": 4.98}, {"measurement": "GI50", "setting": "[1]; HCC70 cell line, censored GI50 values", "value": 5.74}, {"measurement": "GI50", "setting": "[1]; HCC1143 cell line, censored GI50 values", "value": 4.87}, {"measurement": "GI50", "setting": "[1]; HCC1187 cell line, censored GI50 values", "value": 5.47}, {"measurement": "GI50", "setting": "[1]; HCC1419 cell line, censored GI50 values", "value": 6.03}, {"measurement": "GI50", "setting": "[1]; HCC1428 cell line, censored GI50 values", "value": 5.35}, {"measurement": "GI50", "setting": "[1]; HCC1500 cell line, censored GI50 values", "value": 4.89}, {"measurement": "GI50", "setting": "[1]; HCC1806 cell line, censored GI50 values", "value": 5.05}, {"measurement": "GI50", "setting": "[1]; HCC1937 cell line, censored GI50 values", "value": 5.00}, {"measurement": "GI50", "setting": "[1]; HCC1954 cell line, censored GI50 values", "value": 5.08}, {"measurement": "GI50", "setting": "[1]; HCC2185 cell line, censored GI50 values", "value": 5.75}, {"measurement": "GI50", "setting": "[1]; HCC3153 cell line, censored GI50 values", "value": 4.99}, {"measurement": "GI50", "setting": "[1]; LY2 cell line, censored GI50 values", "value": 5.77}, {"measurement": "GI50", "setting": "[1]; MCF7 cell line, censored GI50 values", "value": 5.78}, {"measurement": "GI50", "setting": "[1]; MDAMB134VI cell line, censored GI50 values", "value": 5.02}, {"measurement": "GI50", "setting": "[1]; MDAMB175VII cell line, censored GI50 values", "value": 5.51}, {"measurement": "GI50", "setting": "[1]; MDAMB361 cell line, censored GI50 values", "value": 6.05}, {"measurement": "GI50", "setting": "[1]; MDAMB415 cell line, censored GI50 values", "value": 4.95}, {"measurement": "GI50", "setting": "[1]; MDAMB436 cell line, censored GI50 values", "value": 4.47}, {"measurement": "GI50", "setting": "[1]; MDAMB453 cell line, censored GI50 values", "value": 5.73}, {"measurement": "GI50", "setting": "[1]; MDAMB468 cell line, censored GI50 values", "value": 5.01}, {"measurement": "GI50", "setting": "[1]; SKBR3 cell line, censored GI50 values", "value": 5.68}, {"measurement": "GI50", "setting": "[1]; SUM52PE cell line, censored GI50 values", "value": 5.81}, {"measurement": "GI50", "setting": "[1]; SUM149PT cell line, censored GI50 values", "value": 5.03}, {"measurement": "GI50", "setting": "[1]; SUM159PT cell line, censored GI50 values", "value": 5.17}, {"measurement": "GI50", "setting": "[1]; SUM185PE cell line, censored GI50 values", "value": 5.95}, {"measurement": "GI50", "setting": "[1]; SUM225CWN cell line, censored GI50 values", "value": 6.05}, {"measurement": "GI50", "setting": "[1]; SUM1315MO2 cell line, censored GI50 values", "value": 5.33}, {"measurement": "GI50", "setting": "[1]; T47D cell line, censored GI50 values", "value": 5.78}, {"measurement": "GI50", "setting": "[1]; UACC812 cell line, censored GI50 values", "value": 5.53}, {"measurement": "GI50", "setting": "[1]; ZR75B cell line, censored GI50 values", "value": 5.93}, {"measurement": "GI50", "setting": "[1]; ZR751 cell line, censored GI50 values", "value": 5.94}, {"measurement": "GI50", "setting": "[1]; cell line AU565", "value": 5.61}, {"measurement": "GI50", "setting": "[1]; cell line BT20", "value": 5.00}, {"measurement": "GI50", "setting": "[1]; cell line BT474", "value": 6.08}, {"measurement": "GI50", "setting": "[1]; cell line BT483", "value": 6.08}, {"measurement": "GI50", "setting": "[1]; cell line CAMA1", "value": 5.59}, {"measurement": "GI50", "setting": "[1]; cell line HCC38", "value": 4.98}, {"measurement": "GI50", "setting": "[1]; cell line HCC70", "value": 5.74}, {"measurement": "GI50", "setting": "[1]; cell line HCC1143", "value": 4.87}, {"measurement": "GI50", "setting": "[1]; cell line HCC1187", "value": 5.47}, {"measurement": "GI50", "setting": "[1]; cell line HCC1419", "value": 6.03}, {"measurement": "GI50", "setting": "[1]; cell line HCC1428", "value": 5.35}, {"measurement": "GI50", "setting": "[1]; cell line HCC1500", "value": 4.89}, {"measurement": "GI50", "setting": "[1]; cell line HCC1806", "value": 5.05}, {"measurement": "GI50", "setting": "[1]; cell line HCC1937", "value": 5.00}, {"measurement": "GI50", "setting": "[1]; cell line HCC1954", "value": 5.08}, {"measurement": "GI50", "setting": "[1]; cell line HCC2185", "value": 5.75}, {"measurement": "GI50", "setting": "[1]; cell line HCC3153", "value": 4.99}, {"measurement": "GI50", "setting": "[1]; cell line LY2", "value": 5.77}, {"measurement": "GI50", "setting": "[1]; cell line MCF7", "value": 5.78}, {"measurement": "GI50", "setting": "[1]; cell line MDAMB134V", "value": 5.02}, {"measurement": "GI50", "setting": "[1]; cell line MDAMB175V", "value": 5.51}, {"measurement": "GI50", "setting": "[1]; cell line MDAMB361", "value": 6.05}, {"measurement": "GI50", "setting": "[1]; cell line MDAMB415", "value": 4.95}, {"measurement": "GI50", "setting": "[1]; cell line MDAMB436", "value": 4.47}, {"measurement": "GI50", "setting": "[1]; cell line MDAMB453", "value": 5.73}, {"measurement": "GI50", "setting": "[1]; cell line MDAMB468", "value": 5.01}, {"measurement": "GI50", "setting": "[1]; cell line SKBR3", "value": 5.68}, {"measurement": "GI50", "setting": "[1]; cell line SUM52PE", "value": 5.81}, {"measurement": "GI50", "setting": "[1]; cell line SUM149PT", "value": 5.03}, {"measurement": "GI50", "setting": "[1]; cell line SUM159PT", "value": 5.17}, {"measurement": "GI50", "setting": "[1]; cell line SUM185PE", "value": 5.95}, {"measurement": "GI50", "setting": "[1]; cell line SUM225CWN", "value": 6.05}, {"measurement": "GI50", "setting": "[1]; cell line SUM1315MO", "value": 5.33}, {"measurement": "GI50", "setting": "[1]; cell line T47D", "value": 5.78}, {"measurement": "GI50", "setting": "[1]; cell line UACC812", "value": 5.53}, {"measurement": "GI50", "setting": "[1]; cell line ZR75B", "value": 5.93}, {"measurement": "GI50", "setting": "[1]; cell line ZR751", "value": 5.94}, {"measurement": "subtype-specific response (sensitivity by transcriptional subtype)", "setting": "[2]; GI50 across subtypes", "value": "highest in luminal and ERBB2^AMP and lower in basal and claudin-low breast cancer cell lines; also recorded: Luminal and ERBB2AMP cell lines preferentially respond"}, {"measurement": "Subtype specificity", "setting": "[2]; Table 6, most sensitive subtype, FDR p<0.20", "value": "Luminal/ERBB2AMP"}]}
